# From patent publication US20110263539A1, “SHIP 1 MODULATOR COMPOUNDS” (THE UNIVERSITY OF BRITISH COLUMBIA, priority 2006, published 2011)
# How the values were obtained:
# J774.1a macrophage cells [1] = experiment: Macrophage TNF-α production (Assay 2); type: cell-based; details: 10 μg/mL test compound, 100 ng/mL LPS, ELISA; note: key: a ‘+’ indicates a positive result for desired activity; a ‘−’ indicates a negative result for desired activity
# Experimental: Assay 2) Macrophage TNF-α production. J774.1a macrophage cells were treated with 10 μg/mL of test compound dissolved in solvent (e.g. cyclodextran) for 40 minutes prior to the addition of 100 ng/mL LPS. Culture supernatants were collected after 2 hr and 5 hr for TNF-α determination by ELISA.
# J774.1a macrophage cells [2] = experiment: Macrophage TNF-α NO assay (Assay 3); type: cell-based; details: 10 μg/ml test compound, LPS, 24 hr, Griess reagent; note: key: a ‘+’ indicates a positive result for desired activity; a ‘−’ indicates a negative result for desired activity
# Experimental: Assay 3) Macrophage TNF-α NO assay. J774.1a macrophage cells were treated with 10 μg/ml of test compound dissolved in solvent for 40 minutes prior to the addition of LPS. Culture supernatants were collected after 24 hr. for determination of NO concentration using the Griess reagent.
# [3] = system: neutrophil myeloperoxidase (MPO) activity; experiment: Mouse acute cutaneous anaphylaxis model (Assay 5); type: in vivo, CD1 mice; details: topical on ear, DNFB
# Experimental: Assay 5) Mouse acute cutaneous anaphylaxis model. 6-8 week old CD1 mice
# (§1) (University of British Columbia Animal Facility, Vancouver, BC) were sensitized to the hapten DNP by cutaneous application of 25 μL of 0.5% dinitrofluorobenzene (DNFB) (Sigma, Oakville, Ont) in acetone to the shaved abdomen of mice for two consecutive days. 24 hrs later, test substances (dissolved in 10 μL of 1:2 DMSO:MeOH) were painted on the right ear while the left ear received vehicle control. 30 min after drug application, DNFB was applied to both ears to induce mast cell degranulation. A 6 mm punch was taken from the ear and immediately frozen on dry ice for subsequent determination of neutrophil myeloperoxidase (MPO) activity.
# as §1, with “Mouse acute cutaneous anaphylaxis model. 6-8 week old CD1 mice (University” for “(University”, “activity. Compound 100's ability to inhibit cutaneous anaphylaxis was assessed.” for “activity.”
# Anaphylactic or allergic responses are mediated by allergen-induced degranulation of pre-sensitized mast cells. The mouse ear edema/cutaneous anaphylaxis model involves pre-sensitization of mice with the haptenizing agent dinitrofluorobenzene (DNFB). One week later the allergic reaction is elicited by painting DNFB onto the ears of the mice. The efficacy of potential anti-inflammatory compounds is tested by topical application of the test substance to one ear and comparing the resulting ear edema or inflammation of the two ears.
# MM cell lines = experiment: In vitro Multiple Myeloma (MM) assay (Assay 7); type: cell-based; note: key: a ‘+’ indicates a positive result for desired activity; a ‘−’ indicates a negative result for desired activity
# Experimental: Assay 7) In vitro Multiple Myeloma (MM) assay. The ability of SHIP activators to reduce tumor cell survival was assessed in MM cell lines treated with the test compound. The lines OPM1, OPM2, MM.1S and RPMI 8226 were plated at a density of 1×10^5 cells/mL in 200 μL of medium with various concentrations of the test compound, and viable cell numbers were determined on day 3 and day 5 by trypan blue exclusion. The lines RPMI 8226 and U266 were plated at a density of 1×10^6 cells/mL in 250 μL of medium with various concentrations of the test compound. At day 4, the medium of each culture was replaced by fresh medium containing the same concentration of test compound. At day 7, the viable cell number of each culture was determined by trypan blue exclusion.
# MM cell lines were cultured in 96 well plates seeded with 3×10^4 cells suspended in 200 μL of medium along with various concentrations of test compound (and associated cyclodextran vehicle control), with LY294002 serving as a positive control in the experiments. After 24-48 hrs of culture, […] of [3H]-thymidine (GE Healthcare, Baie D'Urfe, Canada) being added for the final 8 hours. Cells were harvested and DNA associated radioactivity was measured via liquid scintillation counting using a Wallac Microbeta counter (Perkin-Elmer; Boston, Mass.).
# The ability of SHIP activators to reduce tumor cell survival was assessed in multiple myeloma (MM) cell lines treated with Compound 100 or AQX-016A. The lines OPM1, OPM2, MM.1S and RPMI 8226 were plated at a density of 1×10^5 cells/mL in 200 μL of medium with various concentrations of Compound 100, and viable cell numbers were determined on day 3 and day 5 by trypan blue exclusion. The lines RPMI 8226 and U266 were plated at a density of 1×10^6 cells/mL in 250 μL of medium with various concentrations of AQX-016A. At day 4, the medium of each culture was replaced by fresh medium containing the same concentration of AQX-016A. At day 7, the viable cell number of each culture was determined by trypan blue exclusion. Experiments were performed in triplicate.
# Proliferation (DNA synthesis) assays. Proliferation was measured by measuring incorporation of [^3H]-thymidine into cells. MM cell lines were cultured in 96 well plates seeded with 3×10^4 cells suspended in 200 μL, of medium along with various concentrations of Compound 100 or AQX-016A (and associated cyclodextran vehicle control), with LY294002 serving as a positive control in the indicated experiments. After 24-48 hrs of culture, 1 μCi of [^3H]-thymidine (GE Healthcare, Baie D'Urfe, Canada) being added for the final 8 hours. Plates were frozen, which also aided in cell lysis, to terminate the experiments. Cells were then harvested onto glass fibre filters using an automatic cell harvester (TomTech; Orange, Conn.) and DNA associated radioactivity was measured via liquid scintillation counting using a Wallac Microbeta counter (Perkin-Elmer; Boston, Mass.). Wells were set up in triplicate and data is expressed as mean+/−SEM.
# [4] = system: luciferase expressing OPM2 cells; experiment: In vivo Multiple Myeloma (MM) assay (Assay 8); design: species or system Mice; details: 50 mg/kg every 3 days, subcutaneous oil depot
# Experimental: Assay 8) In vivo Multiple Myeloma (MM) assay. Mice were inoculated with at two sites each with 3×10^6 luciferase expressing OPM2 cells suspended in 50 μL of growth medium and 50 μL of Matrigel basement membrane matrix (Becton Dickenson; Bedford, Mass.). Tumors were injected subcutaneously in the upper and lower flanks of the mice and allowed to establish for 2 weeks. After 2 weeks, a test compound or control vehicle was administered in a subcutaneous oil depot at a dose of 50 mg/kg every 3 days.
# Tumors were measured using bioluminescence imaging on the Xenogen IVIS 200. Mice received intra-peritoneal injections of 200 μL of D-luciferin at 3.75 mg/mL in sterile PBS. Mice were then anesthetized with isofluorane and imaged 15 minutes post-injection of luciferin. Quantification of tumor size was performed using the Living Image™ software.
# MM Xenograft murine model. Mice were inoculated with at two sites each with 3×10^6 luciferase expressing OPM2 cells suspended in 50 μL of growth medium and 50 μL of Matrigel basement membrane matrix (Becton Dickenson; Bedford, Mass.). Tumors were injected subcutaneously in the upper and lower flanks of the mice and allowed to establish for 2 weeks. […]
# Tumors were measured using bioluminescence imaging on the Xenogen IVIS 200. […] Quantification of tumor size was performed using the Living Image™ software. […]
# LNCaP cells = experiment: PKB activation in LNCaP cells; type: cell-based, human; details: doses up to 60 μM
# Experimental: The ability of AQX-016A to inhibit activation of PIP3-dependent downstream signalling proteins in SHIP^+/+ vs SHIP^−/− cells was assessed. LPS stimulation of macrophages results in PKB phosphorylation. […] Similar protein loading was confirmed by reblotting with either antibodies to PKB or Grb2. […] Thus, AQX-016A inhibits PIP3-regulated intracellular signal transduction events in SHIP expressing hematopoietic cells, but not in SHIP-deficient hematopoietic or non-hematopoietic cells.
# [5] = Initial toxicology studies; type: in vivo; details: data not shown
# Excerpt: A novel paradigm for inhibiting PI3K signaling through activation of the phosphatases that negatively regulate this pathway is provided. SHIP is a particularly good target for immune/hematopoietic disorders because of its restricted expression to hematopoietic cells. Because the relative activity of phosphatases present in a cell will influence the efficacy of kinase inhibitors, as discussed by Knight and Shokat, SHIP agonists may also be used to potentiate the activation of PI3K inhibitors and promote tissue targeting of PI3K inhibitors to the ematopoietic/immune cell compartment.
smiles,measurement,setting,value
Cc1cc(O)c(O)c2c1[C@]1(C)CCC3C(C)(C)CCC[C@]3(C)[C@H]1C2 (stereo partly shown) [AQX-016A],Assay Number 2: Macrophage TNF-α production,J774.1a macrophage cells [1],+
same,Assay Number 3: Macrophage NO,J774.1a macrophage cells [2],+
same,Assay Number 5: Mouse acute cutaneous anaphylaxis model,[3],+
same,Assay Number 7: In vitro Multiple Myeloma (MM) assay,MM cell lines,+
same,Assay Number 8: In vivo Multiple Myeloma (MM) assay,[4],+
same,PKB phosphorylation,LNCaP cells,no effect
same,peripheral blood cell counts or bone marrow progenitor numbers,[5],do not significantly affect
